Legend:
Assay type in all cases: in vivo
Long Evans rats [1] = assay: Food self-administration under PR schedule of reinforcement; details: 3.75 mg dose vs 0, t(7)=0.43, p=0.66
Protocol: In Vivo Studies. Effect on Food-Self administration. These studies were performed using Long Evans rats using standard protocols. Training and testing took place in ventilated and sound-attenuated operant chambers measuring 30×21×18 cm. Each chamber contained two levers, one light above each of the levers, and a food trough. Each lever was positioned 2.5 cm from the rod floor and the food trough (measuring 5×5 cm) was centered between the two levers. A different set of animals (n=8) was trained to press a lever reinforced by food under a FR1 schedule of reinforcement. […] Percentage of baseline BPs for food self-administration was analyzed using a dependent measures t-test comparing the 0 and 3.75 mg doses of 113.

Rats = assay: Cue-induced reinstatement of cocaine-seeking; details: ip injection of one of 3 doses 20 minutes before 1-h reinstatement session
Protocol: In Vivo Studies. Effect on Reinstatement. Rats were trained to self-administer cocaine (1.0 mg/kg/injection) under a FR1 schedule of reinforcement in daily 3-h sessions and, after stable responding was established (as described above) the schedule was changed to FR3. After stable responding under the FR3 schedule was established, extinction training began. Stable responding was defined as follows: 12 consecutive sessions in which total rewards per session was greater than 20 and in which total rewards per session for the last three sessions was within ±10% of the mean of the three sessions. […] After extinction criteria were met each rat was tested in one 1-h reinstatement session; each rat received an ip injection of vehicle or one of 3 doses of the test compound and 20 minutes later was placed in the operant chamber. At the start of the reinstatement session the cocaine-associated cues (light on for 20 s and pump on for 4.5 s) were presented twice, once at 25 sec and again at 2 min into the session. Presses on the active lever illuminated the light and activated the pump.

Long Evans rats [2] = assay: Spontaneous locomotor activity; details: all doses tested (3.75, 7.5, 15 mg/kg), any time during the test sessions
Protocol: (§1) In Vivo Studies. Effect on Locomotor Activity. These studies were performed using Long Evans rats using standard protocols. Locomotor activity chambers measuring 43×43×30 cm (l×w×h) were used for the locomotor activity experiments. Each chamber was equipped with eight photo-emitters positioned along the length of the chamber 6 cm above the floor, each paired directly opposite a photocell. Locomotor activity counts were registered when adjacent beams were broken consecutively. Before receiving any drug, the animals (n=96) were placed in locomotor activity chambers for habituation, for 2 hours per day for 3 consecutive days. Based on the locomotor activity score obtained during the third habituation session, animals were assigned into one of […]. […] For the 113 alone experiments, each of the four groups received one of 4 doses of 113 (0, 3.75, 7.5 or 15 mg/kg) 10 minutes prior to placement in the activity chambers. For the 113 cocaine interaction experiments, each of 4 groups were injected with one of the 4 doses of the compound (0, 3.75, 7.5 or 15 mg/kg) 10 minutes before receiving 10 mg/kg of cocaine as the second injection. […] The locomotor counts in the 113 alone and 113/cocaine experiments were analyzed using two separate mixed-design ANOVAs with 113 dose (between-groups) and 5-min bins (repeated measures) as factors. […]

Long Evans rats [3] = assay: Cocaine-induced locomotor activity; details: 3.75, 7.5 or 15 mg/kg 10 minutes before 10 mg/kg of cocaine; p<0.05
Protocol: as §1

Long Evans rats [4] = assay: Cocaine self-administration under PR schedule of reinforcement
Protocol: In Vivo Studies. Effect on Cocaine-Self administration. These studies were performed using Long Evans rats using standard protocols (Quinlan M. G. et al. Psychopharmacol. 2004, 175, 53-59; Ranaldi, R. et al. Behav. Pharmacol. 2011, 22, 347-353). Cocaine self-administration sessions were conducted in sixteen operant chambers; eight measuring 30×22×27 cm (l×w×h) and the other eight measuring 26×26×30 cm (l×w×h). Each chamber was situated inside a sound-attenuating box and was equipped with two retractable levers, a white light above each lever, and a tether. Polyethylene tubing, covered by the tether, connected the animal, through a fluid swivel, to a syringe in a syringe pump (Razel, 3.33 rpm). […] Each animal was tested with one dose of the D3 antagonist, randomly determined, at as many of the three cocaine doses as possible. After a particular test the animal's cocaine dose was changed to another one (randomly determined) and its baseline BP on the new dose was established. BP during the test session was expressed as the percentage of the average BP obtained during the last three baseline sessions. Percentage of baseline BP and final ratio (i.e. the number of lever presses required for the BP infusion) were analyzed using separate two-way analyses of variance (ANOVAs) with dose of 113 and dose of cocaine as between-groups factors. […]

CC(C)(C)c1nc(N2CCN(CCCCNC(=O)c3cn4ccccc4n3)CC2)cc(C(F)(F)F)n1 [Compound 113, N-(4-(4-(2-(tert-Butyl)-6-(trifluoromethyl)pyrimidin-4-yl)piperazin-1-yl)butyl)imidazo[1,2-a]pyridine-2-carboxamide]
percentage of baseline BP for food self-administration (Long Evans rats [1]): did not affect food self-administration
cue-induced reinstatement (presses on the active lever) (Rats): strongly reduced in a dose-related fashion
spontaneous locomotor activity, overall (Long Evans rats [2]): none of the doses tested produced significant effects on spontaneous locomotor activity
cocaine-induced locomotor activity (Long Evans rats [3]): significantly reduce cocaine-induced locomotor activity in a dose-related fashion
percentage of baseline BP for cocaine under PR schedule, dose relation (Long Evans rats [4]; 3.75, 7.5 and 15 mg/kg intraperitoneally 10 minutes prior to session, cocaine 0.375, 0.75 or […]): dose-related reduction in the percentage of baseline BPs
percentage of baseline BPs for cocaine compared to vehicle (Tukey post hoc) (Long Evans rats [4]; 3.75, 7.5 or 15 mg of 113, ps<0.05): significant reductions in the percentage of baseline BPs
